Data reported in publication PMC4777480, “Trichoderma harzianum Produces a New Thermally Stable Acid Phosphatase, with Potential for Biotechnological Application” (PLoS ONE, 2016).
Blank lines part the entries; values can stand above or below the molecule they belong to.

Assays:
[1] = molecular target: T1, ACPase II (Trichoderma harzianum, UniProt A0A2T3ZY58); conditions: 5000 µM; 5 mM inorganic phosphate, 60°C; Table 3 gives residual activity instead
T1 construct: gene M431DRAFT_96728
T1 sequence (A0A2T3ZY58 21-556): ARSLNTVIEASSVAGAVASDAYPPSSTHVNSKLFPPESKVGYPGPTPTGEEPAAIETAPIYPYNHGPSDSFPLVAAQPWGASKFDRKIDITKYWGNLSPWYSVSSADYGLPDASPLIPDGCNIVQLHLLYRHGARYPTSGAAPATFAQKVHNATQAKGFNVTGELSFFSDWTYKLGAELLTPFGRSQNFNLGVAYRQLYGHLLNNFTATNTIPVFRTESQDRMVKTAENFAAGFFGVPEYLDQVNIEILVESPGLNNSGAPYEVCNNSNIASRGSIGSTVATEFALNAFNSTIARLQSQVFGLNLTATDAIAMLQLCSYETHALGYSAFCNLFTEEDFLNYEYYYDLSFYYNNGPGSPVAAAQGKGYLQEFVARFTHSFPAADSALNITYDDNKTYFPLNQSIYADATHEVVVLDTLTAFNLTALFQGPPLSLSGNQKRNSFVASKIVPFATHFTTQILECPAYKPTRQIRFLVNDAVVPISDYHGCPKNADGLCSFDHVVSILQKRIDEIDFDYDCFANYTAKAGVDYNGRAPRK

[2] = molecular target: the molecule itself; assay: SEC + other: dynamic light scattering; data not shown; ACPase II in solution, eluted in the void volume; hydrodynamic radius 14.3 nm, mass 326 kDa; conditions of the light scattering not told

ACPase II [1]: 65.0 ± 2.0%
Molecule: O=P(O)(O)O [sodium phosphate]

B1: ACPase II (acid phosphatase II) from Trichoderma harzianum (enzyme)
chain: T1 sequence (A0A2T3ZY58 21-556)
modifications: glycoprotein, approximately 30% carbohydrate (N- and O-glycosylation)
stoichiometry N [2]: 4
